Assay results taken from patent US20230276831A1, “Food/Beverage Article” (Kikkoman Corporation, priority 2020, published 2023).

Tests used:
Assay type in all cases: cell-based
[1] = system: Lactobacillus rennini DSM 20253; assay: Antimicrobial action of licoricidin in liquid seasoning (1), lactic acid bacteria A; details: conclusion of Test Example 4; various salt concentration and various alcohol concentrations; lactic acid bacteria A to D
Protocol: Commercially available whole soybean soy sauce (produced by Kikkoman Corporation) was electrodialyzed and then concentrated under reduced pressure to obtain soy sauce at a salt concentration of 0% (w/v) and an alcohol concentration of 0% (v/v). Then, salt and/or alcohol was added to the above-mentioned obtained soy sauce, and the mixture was heat-treated to produce soy sauces at salt concentrations and alcohol concentrations shown in the following Table 5. The pHs of the soy sauces were 4.9 to 5.0. […]
Licoricidin (produced by ChemFaces) was added to each of the liquid seasonings produced in the above-mentioned (1) to concentrations of 1 ppm, 5 ppm, 10 ppm, 25 ppm, and 50 ppm. Lactic acid bacteria described in the following Table 9 were then added to 10^6 to 10^7 cells/mL and cultured at 30° C. for 7 days. After the culture, the number of lactic acid bacteria was measured using the GAM agar medium “Nissui”. Liquid seasoning to which licoricidin was not added was used as a control group, and the antimicrobial activity was evaluated in comparison with the number of lactic acid bacteria in the control group. The evaluation was performed using the criterion shown below. […]

[2] = system: Lactobacillus rennini (DSM 20253); assay: Antimicrobial action of oxygen-containing heterocyclic compounds in soy sauce (Test Example 6); details: Loigolactobacillus rennini, DSM20253, 168 h, salt 4% (w/v), alcohol 5% (v/v)
Protocol: (§1) Commercially available whole soybean soy sauce (produced by Kikkoman Corporation) was electrodialyzed and then concentrated under reduced pressure to produce soy sauce at a salt concentration of 0% (w/v) and an alcohol concentration of 0% (v/v). Then, salt and/or alcohol was added to the above-mentioned obtained soy sauce, and the mixture was then heat-treated to produce soy sauce at a salt concentration of 4% (w/v) and an alcohol concentration of 5% (v/v).
The test substance described in Table 20 was added to the above-mentioned produced soy sauce to concentrations of 1 to 100 ppm. Lactic acid bacteria (Lactobacillus rennini (DSM 20253)) were then added to 10^6 to 10^7 cells/mL and cultured at 30° C. for 7 days. After the culture, the number of lactic acid bacteria was measured using the GAM agar medium “Nissui”. Soy sauce to which licoricidin was not added was used as a control group, and the antimicrobial activity was evaluated in comparison with the number of lactic acid bacteria in the control group. The evaluation was performed using the criterion shown below.
• A: The bacterial count decreases to less than 10% of the bacterial count of the control group. • B: The bacterial count decreases to 10% or more and less than 50% of the bacterial count of control group. • C: The bacterial count decreases to 50% or more and less than 100% of the bacterial count of the control group. • D: The bacterial count is the same as the bacterial count of the control group. • -: Not evaluated

[3] = system: Lactobacillus rennini (DSM 20253); assay: Antimicrobial action of licoricidin in liquid dressing, lightly-pickled vegetables and cooking vinegar (Test Example 9); details: conclusion of Test Example 9
Text: Specifically, Koikuchi soy sauce (produced by Kikkoman Corporation), table vinegar, mirin, granulated sugar, kelp stock, and water were blended in amounts shown in the following Table 24, and the resulting mixture was heated to produce liquid dressing. The salt concentration of the obtained liquid dressing was 2.6% (w/v), the alcohol concentration was 0.8% (v/v), the pH was 4.2.
Specifically, Usukuchi soy sauce (produced by Kikkoman Corporation), table vinegar, corn syrup, isomerized sugar, salt, granulated sugar, sodium glutamate (MSG), lemon fruit juice, kelp stock, and water were blended in amounts shown in the following Table 25, and the mixture was heated to produce seasoning liquid for lightly-pickled vegetables. Chinese cabbages were fully soaked therein to produce lightly-pickled vegetables. […]
Licoricidin (produced by ChemFaces) was added to each of the above-mentioned produced liquid dressing, lightly-pickled vegetables, and cooking vinegar to concentrations of 1 ppm, 5 ppm, 10 ppm, 25 ppm, and 50 ppm. […] After the culture, the number of lactic acid bacteria was measured using the GAM agar medium “Nissui”. The liquid dressing, the lightly-pickled vegetables, and the cooking vinegar to which licoricidin was not added were used as respective control groups, and the antimicrobial activity was evaluated in comparison with the number of lactic acid bacteria in the control group. […]

[4] = system: Lactobacillus fructivores (NBRC 13954); assay: Antimicrobial action of oxygen-containing heterocyclic compounds in soy sauce (Test Example 7); details: NBRC13954, 168 h, salt 4% (w/v), alcohol 5% (v/v)
Protocol: as §1
The test substance described in Table 21 was added to the soy sauce produced in Test Example 6 to concentrations of 0.1 ppm, 0.5 ppm, 1 ppm, 5 ppm, 25 ppm, and 50 ppm. Lactic acid bacteria (Lactobacillus fructivores (NBRC 13954)) were then added to 10^4 to 10^5 cells/mL and cultured at 30° C. for 7 days. After the culture, the number of lactic acid bacteria was measured using Difco Lactobacilli MRS Agar. Soy sauce to which the test substance was not added was used as a control group, and the antimicrobial activity was evaluated in comparison with the number of lactic acid bacteria in the control group. The evaluation was performed using the following criterion.
• A: The bacterial count decreases to less than 10% of the bacterial count of a control group. • B: The bacterial count decreases to 10% or more and less than 50% of the bacterial count of the control group. • C: The bacterial count decreases to 50% or more and less than 100% of the bacterial count of the control group. • D: The bacterial count is the same as the bacterial count of the control group.

`COc1c(CC=C(C)C)c(O)cc2c1C[C@H](c1ccc(O)c(CC=C(C)C)c1O)CO2` [Licoricidin, 4-[(R)-7-hydroxy-5-methoxy-6-(3-methyl-2-butenyl)chroman-3-yl]-2-(3-methyl-2-butenyl)-1,3-benzenediol] was tested, and the “Antimicrobial activity to various lactic acid bacteria” value [1] was “exhibited antimicrobial activity”, the activity at 5 ppm ([2]; test substance 5 ppm) was under 10% and the activity at 10 ppm ([2]; test substance 10 ppm) was under 10%. The activity at 25 ppm ([2]; test substance 25 ppm) was under 10%, the activity at 50 ppm ([2]; test substance 50 ppm) was under 10% and the “Antimicrobial activity to lactic acid bacteria in the various liquid seasonings and the food” value [3] was “exhibited antimicrobial activity”. The activity at 0.1 ppm ([4]; test substance 0.1 ppm) was 10 to 50%, the activity at 0.5 ppm ([4]; test substance 0.5 ppm) was 10 to 50% and the activity at 1 ppm ([4]; test substance 1 ppm) was 10 to 50%. The activity at 5 ppm ([4]; test substance 5 ppm) was 10 to 50%, the activity at 25 ppm ([4]; test substance 25 ppm) was under 10% and the activity at 50 ppm ([4]; test substance 50 ppm) was under 10%.
